# Experimental data from patent publication US9018263B2, “Antimicrobial compositions comprising trimethylene glycol oligomer and methods of using the compositions” (E I du Pont de Nemours and Company, priority 2010, dated 2015).
# How the values were obtained:
# [1] = system: Escherichia coli ATCC 8739; experiment: Example 4: di(1,3-propanediol) and DPG, plate counts; type: cell-based; conditions: for CFU/mL: E. coli inoculum
# Experimental: (§1) Two test microorganisms were used, the Gram-negative bacterium, Escherichia coli ATCC 8739, and the Gram-positive bacterium, Staphylococcus aureus ATCC 6538. These microrganisms were grown overnight in 10 mL Tryptic soy broth (TSB) starter cultures, and then inoculated into Klett flasks containing 30 mL of TSB. The Klett flasks were incubated on an incubator shaker at 37° C. until the desired Klett reading was obtained (early stationary phase). Each test inoculum was prepared by adding 0.1 mL of the Klett flask culture to 9.9 mL of Mueller-Hinton II Broth (cation-adjusted) or M9 Broth.
# (§2) The unfractionated mixture, each fraction, a control, and DPG (comparative example) were analyzed for antibacterial or bacteristatic properties against E. coli according to the protocol shown below. Numbers in exponential format are indicated with “E”, i.e. 2.2×10^+9 are written as 2.2E+09.
# [2] = system: Staphylococcus aureus ATCC 6538; experiment: as above; type: cell-based; conditions: for CFU/mL: S. aureus inoculum; for effect on gram positive bacteria (in words): S. aureus
# Experimental: [The source words this procedure for another target and reports this target under the same test.] as §1, §2
Compound,CFU/mL ([1]; Conc. 0.1%),CFU/mL ([1]; Conc. 0.5%),CFU/mL ([1]; Conc. 1%),"effect on gram negative bacteria (in words) ([1]; E. coli, concentrations of 0.5% and 1%)",CFU/mL ([2]; Conc. 0.1%),CFU/mL ([2]; Conc. 0.5%),CFU/mL ([2]; Conc. 1%),effect on gram positive bacteria (in words) ([2]; concentrations of 0.5% and 1%),CFU/mL ([1]; Conc. 10%),CFU/mL ([2]; Conc. 10%),effect on gram positive bacteria (in words) ([2]; 0.1 to 10%)
"OCCCOCCCO [PDO Dimer, di(1,3-propanediol)]",3.2E+08 CFU/mL,7.6E+02 CFU/mL,<10 CFU/mL,kills or inhibits the growth,2.7E+07 CFU/mL,1.4E+04 CFU/mL,1.6E+03 CFU/mL,kills or inhibits the growth,–,–,–
"1,2-dipropaneglycol [DPG]",2.1E+08 CFU/mL,2.9E+08 CFU/mL,3.7E+08 CFU/mL,–,2.0E+07 CFU/mL,2.0E+07 CFU/mL,2.0E+07 CFU/mL,–,1.5E+05 CFU/mL,2.1E+07 CFU/mL,little or no antibacterial or bacteristatic effect
